Values joined by “and” are separate entries in the source; they are usually repeats but may differ in a detail not shown here. Equal values may be shown once.
Tests used:
H. virescens [1] = test: Seven day mortality assay on neonates, CryIAc in artificial diet
Method: Insects were reared in the laboratory at 27±1° C. with a 14:10 (light:dark) cycle on a standard artificial diet (Gould et al., 1995; Rose et al., 1995). The Wake strain of H. virescens used was originally collected in 1986 from tobacco in Wake county, N.C. The YHD2 strain was originally collected as eggs from seven tobacco fields in Yadkin County, N.C., in July of 1988. The YHD2 larvae were reared each generation for about seven days from egg hatch on 1000 μg of Bt toxin CryIAc (MVP, commercial grade, >98.0% δ endotoxin, Mycogen Corporation, San Diego) per ml of artificial diet and then transferred to insecticide-free diet for the remainder of development.
Mortality data were analyzed using probit analysis (PROC PROBIT, SAS 1991).

H. virescens [2] = conditions: Gould et al. 1995; cited from earlier work
H. zea [3] = test: Modified feeding disruption bioassay on MVP-hydrated meal pads, field strains; assay type: in vivo, Helicoverpa zea
Method: Trypan Blue (Direct Blue 14; Matheson Coleman and Bell, Norwood, Ohio) was blended with artificial diet, 20 mg dye per 100 ml diet. Blue diet aliquots were dispensed (100 μl per well) into 8-well microtiter plate strips (Nalge Nunc Int., Napersville, Ill.). The blue dye served as a marker of feeding on the assay diet, with larvae feeding on colored diet producing blue feces which were easily distinguished visually from feces derived from other food sources. Microtiter plate strips containing blue diet were frozen at −80° C. and lyophilized (Bench Top 6, Virtis, Gardiner, N.Y.; cold trap=−70° C., ˜200 mTorr, ambient temperature=23° C.) for a minimum of 24 h in order to form hydratable meal pads. Meal pads were stored in the dark in sealed plastic bags with desiccant prior to use.
Meal pads were hydrated with aqueous dilutions of the B. thuringiensis CryIAc δ-endotoxin formulation MVP (Mycogen, San Diego, Calif.) at least 1 h prior to the start of assays. Fresh diet aliquots (100 μl) consistently lost 78-84% of their water content by weight during the lyophilization process. Therefore, meal pads were hydrated with 80 μl of MVP in distilled water (treatments) or distilled water only (controls). The insecticide concentrations referenced throughout this paper are in μg MVP per ml of diet, i.e. the final concentration of insecticide in hydrated diet, which is 80% of the concentration of the solution used to hydrate the meal pads. Strip caps (Nunc) were cut into single caps in order to seal wells of the microtiter plate strips individually, which facilitated observation within wells while not allowing neighboring larvae to escape. In order to reduce condensation within the wells and provide larvae with air, caps were punctured twice with a #3 insect pin. Bioassays were conducted at 27±1° C. with a 14:10 (L:D) cycle, and blue fecal pellets were counted at 24 h. Neonates were used in all assays and were exposed to assay diets within 24 h of hatch. The results from each assay are taken from two replicates of each dose, with each replicate consisting of 24 larvae, one larva per well. Control (no dose) treatments were replicated three times. Dead larvae (defined as no movement for 30 s after prodding with a blunt probe) at the assay endpoint (24 h) were discarded and not included in the reported results. For each surviving larva, the number of fecal pellets produced was recorded. Serial dilutions of the MVP formulation were used for meal pad hydration, with separate dilution series prepared for each replicate.
Following 24 h exposure to diet containing a known concentration of MVP (Mycogen), a surviving larva was designated as a ‘feeder’ if it had produced more than two fecal pellets and as a ‘non-feeder’ otherwise. The cut-off value of two fecal pellets was adopted because this provided the clearest separation between species. Probit analyses were applied to the dichotomized fecal pellet counts in order to compare strains, between and within species, with respect to the feeding disruption response. A probit model was then used to relate the proportion of non-feeders to dose (on a log10 scale). Probit curves were fitted separately for each insect strain, and a NFC50 (non-feeding concentration50; log10 of the MVP concentration resulting in 50% non-feeders) and slope was obtained for H. zea. Also, probit curves were compared across species and among strains within species using PROC GENMOD with LINK=PROBIT (SAS 1993) on the data for all strains combined, and fitting effects for species, strains within species, log10 dose, as well as dose by species and dose by strain within species interactions.
Probit estimates of the proportion of feeders at the diagnostic concentration for each strain were used to predict the properties of an assay involving exposure of a small number, n, of larvae in individual wells for 24 h to diet containing a diagnostic concentration of the MVP formulation (final MVP concentration in diet 0.04 μg/ml). […]

H. zea [4] = test: Feeding disruption assay, CryIAc in Trypan Blue diet (fresh diet); assay type: in vivo, Helicoverpa zea
Method: The blue diet used in the feeding disruption bioassay is an agar based insect meal containing 20 mg of Trypan Blue (Direct Blue 14; Matheson Coleman & Bell, Norwood, Ohio) per 100 ml of standard artificial diet, and containing different concentrations of CryIAc (MVP, Mycogen). Larvae feeding on this colored diet produced blue feces which were easily distinguished by observation from feces derived from other food sources. Assays were conducted in 1-ounce clear plastic cups (Solo Cup Company, Urbana, Ill.; approximately […] in diameter and ¾ inches high) fitted with white cardboard tops, which are routinely used for insect rearing in the inventors' laboratories. The clear plastic allowed for the observation of blue feces without opening the container.
The diagnostic concentration for resistance detection was also investigated for its ability to distinguish Wake susceptible H. virescens from H. zea. In addition, dose response studies were conducted to identify a concentration of Bt that would distinguish resistant YHD2 neonates of H. virescens from H. zea. Dose response studies were duplicated for 25 resistant (HD2) tobacco budworms and 25 bollworms from two generations at different doses of Bt ranging from 0 to 1000 μg CryIAc/ml of blue diet.

[5] = H. zea neonates, 0.032 μg CryIAc/ml diet, 24 hour

Substance: CryIAc: Bacillus thuringiensis CryIAc δ-endotoxin, commercial formulation MVP (Mycogen), >98.0% δ endotoxin
- LC50 (H. virescens [1]; Wake strain, neonates, seven day mortality): 0.0017 μg CryIAc/ml diet
- LC50 (H. virescens [1]; YHD2(female)×Wake(male) hybrid F1 larvae): 0.129 μg CryIAc/ml diet
- LC50 (H. virescens [1]; YHD2 strain, neonates, seven day mortality): 2952 μg CryIAc/ml diet and 2952.0 μg CryIAc/ml diet
- resistance of YHD2 strain to CryIAc compared to the Wake strain (H. virescens [2]): > 2000 fold
- pr, probability of a larva being a feeder, most conservative probit estimate (H. zea [3]; H. zea strains, diagnostic concentration 0.04 μg/ml, 24 h): 0.80
- non-feeding response (0-2 fecal pellets) (H. zea [3]; Hz Alachua neonates, 1200 μg MVP per ml diet, 24 h): 87.2%
- feeding response (>2 fecal pellets) (H. zea [3]; Hz Alachua, 0.04 μg MVP per ml diet, 24 h): 100%
- percentage of neonates remaining feeders (>2 fecal pellets per larva) (H. zea [3]; Hz Alachua, 1200 μg MVP per ml diet, 24 h): 12.8%
- percentage producing 0-2 fecal pellets over 24 h (H. zea [3]; Hz Baldwin neonates, 400 μg MVP per ml diet): 97.7%
- non-feeding response (0-2 fecal pellets) (H. zea [3]; Hz Barnwell neonates, 1200 μg MVP per ml diet, 24 h): 100%
- feeding response (>2 fecal pellets) (H. zea [3]; Hz Barnwell, 0.04 μg MVP per ml diet, 24 h): 100%
- percentage producing 0-2 fecal pellets over 24 h (H. zea [3]; Hz Harmon neonates, 400 μg MVP per ml diet): 89.5%
- pr, feeding probability (H. zea [3]; Hz Irwin (south Georgia), 0.04 μg MVP per ml diet, 24 h): 0.98
- non-feeding response (0-2 fecal pellets) (H. zea [3]; Hz Nueces neonates, 1200 μg MVP per ml diet, 24 h): 100%
- percentage producing 0-2 fecal pellets over 24 h (H. zea [3]; Hz Washington neonates, 400 μg MVP per ml diet): 97.6%
- feeding response (>2 fecal pellets) (H. zea [3]; Hz Washington, 0.04 μg MVP per ml diet, 24 h): 80.4%
- percentage of larvae producing >6 fecal pellets (H. zea [3]; all H. zea larvae assayed, 1200 μg MVP per ml diet, 24 h): < 1%
- percentage producing >15 fecal pellets (H. zea [3]; each of Hz Alachua, Hz Barnwell, Hz Baldwin, 0.04 μg MVP per ml diet, 24 h): > 90%
- percentage non-feeders (H. zea [3]; each of three other H. zea field strains, 400 μg MVP per ml diet, 24 h): Less than 88.0%
- non-feeding response (H. zea [3]; three of the six H. zea susceptible field strains, 400 μg MVP per ml hydrated diet): > 89%
- blue fecal pellets produced per larva (H. zea [4]; [5]): ≥ 7 blue fecal pellets
- percentage producing ≧15 blue fecal pellets (H. zea [4]; [5]): 99%
- percentage producing no blue feces (H. zea [4]; H. zea neonates, 500 μg CryIAc/ml blue diet, 24 hours): 100%
- percentage producing 0-2 fecal pellets in 24 h (H. zea [4]; laboratory susceptible H. zea colony, 1000 μg MVP per ml diet): 98.0%
